From US7135457B1, “Random peptides that bind to gastro-intestinal tract (GIT) transport receptors and related methods” (Cytogen Corporation, priority 1997, dated 2006)
Square brackets hold non-standard residues; d marks the D form. Peptide text beside a SMILES is read from it. * marks the point of attachment. Dansyl = CN(C)c1cccc2c(S(=O)(=O)*)cccc12

Assays:
[1] = Peptide stability in simulated intestinal fluid (SIF); format: in vitro ADME; conditions: rank of relative stability to SIF, 1 = most stable
Description: The relative stability for ZElan031, ZElan053 and ZElan054 was determined in simulated intestinal fluid (SIF) SIF was made by dissolving 100 mg of pancreatin (Sigma cat# P-5 1625, lot# 122H0812) in 8.4 ml of phosphate stock solution, adjusting the pH to 7.5 with 0.2N NaOH and adjusting the volume to 10 ml with water.
Peptide (3.25 mg) was dissolved in 3.25 ml of 10,000 fold diluted SIF solution at 37° C. Aliquots (0.7 ml) of the digestion solution were then withdrawn at <1 min, 1 h, 3 h, and 21 h or 24 h. The samples were quickly passed through a syringe filter (Millipore Millex-GV 0.22 μm, part# SLGV025LS, lot# H2BM95250) and 300 μL of the filtered solution was immediately injected onto a Hewlett-Packard HPLC system equipped with a C-8 column (Applied Biosystems column and guard column: column-p/n 0711-0023 Spheri-5 ODS 5 μm, 220×4.6 mm). The products were eluted at 1.5 ml/min using an acetonitrile-water gradient. The major fluorescent peaks were collected, lyopholized and identified by MS analysis.

[2] = tested on: P100 fractions harvested from Caco-2 cells; experiment: Binding of dansylated peptides to P100 fractions and peptide/particle correlation; conditions: two consecutive assays; versus scrambled PAX2 control
Description: Binding of peptide and/or peptide-coated PLGA particles to membrane (P100) and cytosolic (S100) fractions was assessed by detection of the dansyl moiety incorporated in the peptide. Costar ninety six well ELISA plates were coated with S100 and P100 fractions (100 μg/ml in 0.05 M NaHCO3) overnight at 4° C. The plates were blocked with 0.5% bovine serum albumin in DPBS for 1 h at room temperature and washed 3 times in 1% BSA-DPBS. Peptide-coated particles or peptides were dispersed in the same buffer and added to the plates at concentrations in the range 0.0325-0.5 mg/well. […] The plates were incubated for 1 h at room temperature. The wells were washed 3 times in 1% BSA-DPBS and 100 μl of goat anti-mouse IgGλ:HRP antibody (Southern Biotechnology 1060-05; 1:10,000) was added per well. The plates were incubated for 1 h at room temperature. After washing 3 times in 1% BSA-DPBS 100 μl of TMB substrate (3,3′,5′,5-tetramethylbenzidine; Microwell Peroxidase Substrate System (Kirkegaard and Perry Laboratories 50-76-00)) was added and the optical density was measured at 650 nm at various time intervals.
Binding of dansylated peptides to P100 fractions was assessed to determine if peptide binding was predictive of peptide-coated particle binding.

[3] = tested on: fixed Caco-2 or C2BBe1 cells; experiment: ELISA of GST fusion proteins on fixed Caco-2 or C2BBe1 cells; format: binding; conditions: Caco-2
Description: Fixed Caco-2, C2BBe1, and A431 cell plates were prepared by growing cells on tissue culture treated microtiter plates. When cells were confluent, plates were fixed with 10% formaldehyde, washed twice with PBS and stored with 0.5% BSA-PBS at −20° C. […] The standard ELISA procedure was followed at this point.
The standard ELISA procedure was modified as follows. GST proteins were diluted to an appropriate concentration in PBS containing 1% BSA and 0.05% Tween20 (1% BPT), titered and incubated one hour at room temperature. Following five washes an anti-GST monoclonal antibody was added (Sigma, St. Louis Clone GST-2 diluted 1:10,000 in 1% BPT) and incubated one hour. After five more washes goat anti-mouse IgG2b-HRP was added (Southern Biotechnology Associates Inc., Birmingham, Ala., diluted 1:4000 in 1% BPT) and incubated one hour. After five washes plates were developed with TMB peroxidase substrate (Kirkegard and Perry, Gaithersburg, Md.). All data is presented with background binding subtracted.

[4] = tested on: polarized Caco-2 monolayers; experiment: Transport and uptake of GST-peptide fusions across/into polarized Caco-2 monolayers (anti-GST ELISA); format: in vitro ADME; conditions: 100 μg/ml GST fusion
Description: Transport and uptake of GST-peptide fusions and deletion derivatives across cultured polarized Caco-2 monolayers over 4 hours in HBSS buffer was examined using an anti-GST ELISA assay. In another experiment, transport and uptake of GST-peptide fusions and deletion derivatives across cultured polarized Caco-2 monolayers over 24 hours in serum-free medium (SFM) was examined using an anti-GST ELISA assay.
a) 4 h HBSS study: Transepithelial electrical flux (TER) across the Caco-2 monolayers grown on snapwells (passage 33; 23 days old) was measured to confirm monolayer integrity before beginning the experiment. The medium was removed and the cells were washed once with bHBSS. bHBSS containing 100 μM chloroquine was added and the cells were incubated for 2 h at 37° C. The bHBSS+chloroquine was replaced with 0.5 ml bHBSS containing GST-peptide fusions (100 μg/ml) and the cells were incubated as before. […] At 4 h, TER was measured, the apical medium was sampled and the apical reservoir was washed 6 times with HBSS. […]
b) 24 h SFM study: Transepithelial electrical flux (TER) across the Caco-2 monolayers grown on snapwells (passage 33; 23 days old) was measured to confirm monolayer integrity before beginning the experiment. […] After 24 hours, TER readings were taken, and samples from the basolateral and apical reservoirs were removed. […]

[5] = Crossreactive binding of GST fusions to dansylated peptides; conditions: 0.5 μg/ml GST fusion
fixed Caco-2 cells = experiment: Effect of thrombin cleavage on binding of GST-peptide fusions to fixed Caco-2 cells; conditions: Caco-2
Description: Binding of intact and thrombin-cleaved GST-peptide fusions to fixed Caco-2 cells was compared.
Thirty micrograms of each GST-peptide was treated with bovine thrombin (1μ/ml; 0.4 NIH units; Sigma CN.T9681) for 18 h at room temperature in 20 mM Tris-HCl pH8.0, 150 mM NaCl, 2.5 mM CaCl2. Controls were similarly treated without addition of thrombin. Ten micrograms of each GST-peptide fusion was removed for PAGE analysis, and 10 μg of fusions were added in duplicate to the fixed Caco-2 cells before 5-fold serial dilutions (1% BPT diluent). The fusions were allowed to bind for 1 h at room temperature. Following 6 washes with 1% BPT, binding was assayed by ELISA.

Rel. Stab. [1] | crossreactive binding to ZElan024 (P31) and ZElan018 (PAX2) [5] | effect of thrombin cleavage on detection of binding to fixed Caco-2 cells (fixed Caco-2 cells) | Compound | binding of dansylated peptide to P100 fractions [2] | binding to fixed Caco-2 or C2BBe1 cells relative to GST control [3] | transport (flux) across live Caco-2 monolayers, apical to basolateral [4]
1 |  |  | C[C@@H](O)[C@H](NC(=O)[C@@H](N)CCCCNS(=O)(=O)c1cccc2c(N(C)C)cccc12)C(=O)N[C@H](CCCNC(=N)N)C(=O)N[C@@H](CCCCN)C(=O)N[C@@H](CO)C(=O)N[C@@H](CO)C(=O)N[C@H](CCCNC(=N)N)C(=O)N[C@@H](CO)C(=O)N[C@@H](CC(N)=O)C(=O)N1CCC[C@H]1C(=O)N[C@H](CCCNC(=N)N)C(=O)NCC(=O)N[C@H](CCCNC(=N)N)C(=O)N[C@H](CCCNC(=N)N)C(=O)N[C@@H](Cc1c[nH]cn1)C(=O)N1CCC[C@H]1C(=O)NCC(N)=O [ZElan053, H2N-K(dns)TrKSSrSNPrGrrHPG-CONH2] (H-K(Dansyl)T[dR]KSS[dR]SNP[dR]G[dR][dR]HPG-NH2) | binding at the highest dilution only |  | 
 | no crossreactive binding |  | gst-SARDSCPAEDGSRAVRLNGVENANTRKSSRSNPRGRRHP [GST-P31] |  | bound | higher flux than GST alone
 |  | significantly reduced | gst-RYKHDIGCDAGVDKKSSSVRGGCGAHSSPPRAGRGPRGTMVSRL [GST-DCX8] |  | bound | higher flux than GST alone
